According to PMC10017685 (Nature Communications, 2023):
Read-outs that look alike come from different tables or passages of the source. Peptide text beside a SMILES is read from it.

Assays:
[1] = tested on: Sheep red blood cells; assay: Hemolysis assay (HC50); format: cell-based
Description: The hemolysis assay was conducted according to the procedure described previously. Sheep red blood cells (Defibrillated Sheep Blood, Graso, Poland) were used. […] Then the solution of RBCs was added to each well (100 μL with a 4% concentration of erythrocytes (v/v). The control wells for 0 and 100% hemolysis were also prepared: RBCs suspended in PBS and 1% of Triton-X 100, respectively. After that the plates were incubated for 60 min at 37 °C and then centrifuged at 800 × g for 10 min at 4 °C (Sorvall ST 16R Centrifuge, Thermo Scientific). The supernatant was carefully […] to new microtiter plates and the release of hemoglobin was measured at 590 nm (Multiskan™ GO Microplate Spectrophotometer, Thermo Scientific). Hemolysis for each concentration was calculated as the percentage of control with 100% hemolysis. All experiments were conducted in triplicate. The final values of HC50 were computed using ic50.tk tool.

[2] = tested on: human erythrocytes; set-up: method as in DBAASP; settings: cited from earlier work
[3] = toxicity class label 1 or 0, meaning of the labels not given, DBAASP HC50 data, human erythrocytes, ref DBAASP

Row | Compound | Class (dedicated toxicity dataset used for toxicity classifier evaluation) [2, 3] | further results
1 | CC[C@H](C)[C@H](NC(=O)[C@H](Cc1ccccc1)NC(=O)[C@H](CCCCN)NC(=O)[C@H](CC(N)=O)NC(=O)[C@H](CC(C)C)NC(=O)[C@H](CCC(N)=O)NC(=O)CN)C(=O)N[C@@H](CCCCN)C(=O)N[C@@H](CCCCN)C(=O)N[C@@H](C)C(=O)N[C@@H](CCC(N)=O)C(=O)N[C@@H](CCCNC(=N)N)C(=O)N[C@@H](CCCCN)C(=O)N[C@@H](Cc1ccccc1)C(=O)N[C@@H](Cc1c[nH]cn1)C(=O)N[C@@H](CCC(=O)O)C(=O)N[C@@H](CCCCN)C(=O)N[C@@H](Cc1ccccc1)C(=O)N[C@@H](C)C(=O)N[C@@H](CCCCN)C(N)=O [GQ20] (H-GQLNKFIKKAQRKFHEKFAK-NH2) |  | HC50 [1]: > 512 µg/mL; HC50 ([1]; red cells of sheep): >512 µg/mL
2 | CC[C@H](C)[C@H](N)C(=O)NCC(=O)N[C@@H](CCCCN)C(=O)N[C@@H](CCC(=O)O)C(=O)N[C@@H](Cc1ccccc1)C(=O)N[C@@H](CCCCN)C(=O)N[C@@H](CCCNC(=N)N)C(=O)N[C@H](C(=O)N[C@H](C(=O)N[C@@H](CCC(=O)O)C(=O)N[C@@H](CCCNC(=N)N)C(=O)N[C@H](C(=O)N[C@@H](CCCCN)C(=O)N[C@@H](CCCNC(=N)N)C(=O)N[C@@H](Cc1ccccc1)C(=O)N[C@@H](CC(C)C)C(=O)N[C@@H](CCCNC(=N)N)C(=O)N[C@@H](CCC(=O)O)C(=O)N[C@@H](CC(C)C)C(=O)N[C@H](C(=O)N[C@@H](CCCNC(=N)N)C(=O)N1CCC[C@H]1C(=O)N[C@@H](CC(C)C)C(=O)N[C@@H](CCCNC(=N)N)C(N)=O)C(C)C)[C@@H](C)CC)C(C)C)[C@@H](C)CC [OP-145] (H-IGKEFKRIVERIKRFLRELVRPLR-NH2) |  | HC50 [1]: > 512 µg/mL; HC50 ([1]; red cells of sheep): >512 µg/mL
3 | RQYMRQIEQALRYGYRISRR [DBAASP_14411] | 0 | 
4 | RRGCFRVCYRGFCFQRCR [DBAASP_12233] |  | Class (dedicated toxicity dataset used for toxicity classifier evaluation) [2]: 0
5 | RRWCVYAYVRVRGVRVYAYVCW [DBAASP_13506] | 0 | 
6 | RRWRIVVIRVRR [DBAASP_1204] |  | Class (dedicated toxicity dataset used for toxicity classifier evaluation) [2]: 0
7 | RRWYRRWYRRWY [DBAASP_17315] | 0 | 
8 | RWCRRYRVRVRGVLVYAYVCW [DBAASP_13505] | 0 | 
9 | RWCVYAYVRVRGVLVRYRRCW [DBAASP_13517] | 0 | 
10 | RWFKIQLQIRRWKNKK [DBAASP_8805] | 0 | 
11 | RWFKIQMQIRRWKNKK [DBAASP_8804] | 0 | 
12 | RWFRIQLQIRRWRNRR [DBAASP_8807] | 0 | 
13 | RWGKWFKKATHVGKHVGKAALTAYL [DBAASP_997] | 0 | 
14 | RWQWRWQWR [DBAASP_10099] | 0 | 
15 | RWRRFWRR [DBAASP_12823] | 0 | 
16 | RWWLRRIW [DBAASP_10630] | 0 | 
17 | SAVGRHGRRFGLRKHRKH [DBAASP_3348] | 0 | 
18 | SAVGRHLRRFGLRKHRKH [DBAASP_7659] | 0 | 
19 | SAVGRHLRRFLLRKHRKH [DBAASP_7660] | 0 | 
20 | SAVLRHLRRFLLRKHRKH [DBAASP_7661] | 0 | 
21 | SAVWRHWRRFWLRKHRKH [DBAASP_9988] | 0 | 

Row | Compound | Class (dedicated toxicity dataset used for toxicity classifier evaluation) [2, 3] | further results
22 | SAVWRRWRRFWLRKRRKR [DBAASP_9990] | 0 | 
23 | SAVWRWRRFWLRKRK [DBAASP_9989] | 0 | 
24 | SFLTTVKKLVTNLAAL [DBAASP_13626] | 0 | 
25 | SILPTIVSFLSKVF [DBAASP_13348] | 1 | 
26 | SKVGRHGRRFGHRAHRKL [DBAASP_7662] | 0 | 
27 | SKVGRHLRRFGHRAHRKL [DBAASP_7663] | 0 | 
28 | SKVGRHLRRFLHRAHRKL [DBAASP_7664] | 0 | 
29 | SKVLRHLRRFLHRAHRKL [DBAASP_7665] | 0 | 
30 | SKVWRHWRRFWHRAHRKK [DBAASP_8105] | 0 | 
31 | SKVWRHWRRFWHRAHRKL [DBAASP_14980] | 0 | 
32 | SKVWRHWRRFWHRAHRLH [DBAASP_9101] | 0 | 
33 | SYERKINRHFKTLKKNLKKK [DBAASP_13931] | 0 | 
34 | TIAMRAINNYRWRSKNQNTFLR [DBAASP_6544] | 1 | 
35 | VCKRWKKWKRKWKKWCV [DBAASP_16449] | 0 | 
36 | VKKFAWWWAFLKK [DBAASP_11303] | 0 | 
37 | VKKFAWWWPFLKK [DBAASP_11304] | 0 | 
38 | VKKFPWWWAFLKK [DBAASP_11305] | 0 | 
39 | VKKFPWWWPFLKK [DBAASP_5136] | 0 | 
40 | VKRFKKFFRKFKKFV [DBAASP_16446] | 0 | 
41 | VKRFKKFFRKFKKSV [DBAASP_8772] | 0 | 
42 | VKRFKKFFRKLKKSV [DBAASP_4328] | 0 | 

Row | Compound | Class (dedicated toxicity dataset used for toxicity classifier evaluation) [2, 3] | further results
43 | VKRWKKFWRKWKKWW [DBAASP_8774] | 0 | 
44 | VKRWKKWFRKWKKWV [DBAASP_16447] | 0 | 
45 | VKRWKKWKRKWKKWV [DBAASP_16448] | 0 | 
46 | VKRWKKWRWKWKKWV [DBAASP_8775] |  | Class (dedicated toxicity dataset used for toxicity classifier evaluation) [2]: 0
47 | VKRWKKWWRKLKKSV [DBAASP_8773] | 0 | 
48 | VKWRWKKWRWKWKWKV [DBAASP_8776] | 0 | 
49 | VKWRWKWKWRWKWKWKV [DBAASP_8777] | 0 | 
50 | VQLRIRVAVIRA [DBAASP_7109] | 0 | 
51 | VQWRIRVAVIRK [DBAASP_7680] | 0 | 
52 | VRRFAWWWAFLRR [DBAASP_5137] | 0 | 
53 | VRRFAWWWPFLRR [DBAASP_5142] | 0 | 
54 | VRRFPAAAPFLRR [DBAASP_14271] | 0 | 
55 | VRRFPWAWPFLRR [DBAASP_14266] | 0 | 
56 | VRRFPWWAPFLRR [DBAASP_14267] | 0 | 
57 | VRRFPWWYPFLRR [DBAASP_14261] | 0 | 
58 | VRRFPWYWPFLRR [DBAASP_14260] | 0 | 
59 | VRRFPWYYPFLRR [DBAASP_14263] | 0 | 
60 | VRRFPYWWPFLRR [DBAASP_14259] | 0 | 
61 | VRRFPYWYPFLRR [DBAASP_14264] | 0 | 
62 | VRRFPYYWPFLRR [DBAASP_14262] | 0 | 
63 | WCRRYRVLVRGVLVRYRRCW [DBAASP_13507] | 0 | 

Row | Compound | Class (dedicated toxicity dataset used for toxicity classifier evaluation) [2, 3] | further results
64 | WIRRIKKWIRRVHK [DBAASP_10626] | 0 | 
65 | WKIFKLKLRMLW [DBAASP_13717] | 1 | 
66 | WKKIWSKIKKLLK [DBAASP_7155] | 0 | 
67 | WKKWWKKWWKKW [DBAASP_10848] | 0 | 
68 | WKRRIKIWKKIR [DBAASP_10625] | 0 | 
69 | WLRRIGKGVKIIGGAALDHL [DBAASP_5344] | 0 | 
70 | WLRRIKAWLRRIKA [DBAASP_7164] | 0 | 
71 | WLRRIKAWLRRKRK [DBAASP_10627] | 0 | 
72 | WRRRRRRRR [DBAASP_8812] | 0 | 
73 | WRRRYRRWRRRRRWRRRPRR [DBAASP_10396] | 0 | 
74 | WRWLRRIW [DBAASP_10631] | 0 | 
75 | WWRLRRIW [DBAASP_10632] | 0 | 
76 | WWWLKKIW [DBAASP_9820] | 0 | 
77 | WWWLRRIR [DBAASP_10635] | 0 | 
78 | WWWLRRIW [DBAASP_10629] | 0 | 
79 | WWWLRRRW [DBAASP_10634] | 0 | 
80 | WWWRRRIW [DBAASP_10633] | 0 | 
81 | YLRLIRYMAKMI [DBAASP_17183] | 0 | 
